Common to all, as to experiment: biochemical
For assay [1], the target named is T1, α-1A adrenoreceptor (rat submaxillary gland) (Rattus norvegicus, UniProt P43140).
T1 sequence (P43140 1-466): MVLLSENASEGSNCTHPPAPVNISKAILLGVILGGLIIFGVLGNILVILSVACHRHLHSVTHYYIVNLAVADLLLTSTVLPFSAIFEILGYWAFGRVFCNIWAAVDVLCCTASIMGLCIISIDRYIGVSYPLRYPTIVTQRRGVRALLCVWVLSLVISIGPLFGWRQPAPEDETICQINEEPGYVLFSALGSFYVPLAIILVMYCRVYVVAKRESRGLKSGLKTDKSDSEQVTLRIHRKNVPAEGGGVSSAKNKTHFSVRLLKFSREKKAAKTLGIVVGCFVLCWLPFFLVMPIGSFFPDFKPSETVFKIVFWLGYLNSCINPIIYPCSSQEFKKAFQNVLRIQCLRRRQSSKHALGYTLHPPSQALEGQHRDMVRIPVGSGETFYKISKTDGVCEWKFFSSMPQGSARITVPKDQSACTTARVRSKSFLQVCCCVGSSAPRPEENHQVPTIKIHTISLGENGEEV
The class given is binding. To be noted: [3H]-prazosin radioligand; rat submaxillary gland membranes; read-out: Radioligand Binding (Ki, nM) 1A (Rat). How it is done: Additionally, binding affinity against the pharrnacologically defined α-1A adrenoreceptor (rat submaxillary gland) was measured.
(§1) On the fifth day of culture, growth medium was removed from cells grown in roller bottles, and the cells were washed twice with PBS (Sigma, 120 mM NaCl, 2.7 mM KCl, 10 mM Na2HPO4-NaH2PO4, pH = 7.4). Cells were detached from the roller bottles by incubating for 15 minutes at 37 °C in a Tris-EDTA solution (10 mM Tris, 100 mM NaCl, 1 mM EDTA, pH = 7.4). The cell suspension from each roller bottle was decanted into tared centrifuge tubes and kept on ice. An aliquot of each cell suspension was generally taken for cell counting. Cells were centrifuged at 3000 X G for 5 min at 2-4 °C, washed with PBS and recentrifuged. The supernatant was decanted and the pellet weighed to determine the wet weight of cells. Cells were washed a final time in 40 vol 5 mM Tris-HCl, 5 mM EDTA, pH = 7.7, and centrifuged at 40,000 X G for 10 minutes. Cells were homogenized in 10 mL of 50 mM Tris-HCl, 5 mM EDTA (pH = 7.4) and diluted to 40 mL/tube. Homogenates were centrifuged at 40,000 X G for 10 minutes. The supernatant was decanted and the pellets rehomogenized in 50 mM Tris-HCl (pH = 7.4) and centrifuged as before. The supernatant was decanted and the homogenate resuspended in 6.25 volumes (per gram wet weight) of 50 mM Tris-HCl and aliquots of the pooled homogenates frozen in liquid N2 and stored at -70 °C until the time of assay. Rat submaxillary glands were used for α-1A adrenoreceptors and were prepared essentially as described (Michel, A. D., Loury, D. N. and Whiting, R. L., Brit. J. Pharmacol. 98: 83-889 (1989)).
(§2) Receptor binding assays for α-1 adrenoreceptors were performed essentially as described by Greengrass and Bremner (Eur. J. Pharmacol. 55: 323-326 (1979)). […] Radioactivity was determined by standard liquid scintillation techniques. Data were analyzed as previously described (Hancock, A. A., Kyncl, J. J., Martin, Y. C. and DeBernardis, J. F., J. Receptor Res. 8: 23-46 (1988)).

In assay [2] the target is T2, α-1d adrenoreceptor (Rattus norvegicus, UniProt P23944).
T2 sequence (P23944 1-561): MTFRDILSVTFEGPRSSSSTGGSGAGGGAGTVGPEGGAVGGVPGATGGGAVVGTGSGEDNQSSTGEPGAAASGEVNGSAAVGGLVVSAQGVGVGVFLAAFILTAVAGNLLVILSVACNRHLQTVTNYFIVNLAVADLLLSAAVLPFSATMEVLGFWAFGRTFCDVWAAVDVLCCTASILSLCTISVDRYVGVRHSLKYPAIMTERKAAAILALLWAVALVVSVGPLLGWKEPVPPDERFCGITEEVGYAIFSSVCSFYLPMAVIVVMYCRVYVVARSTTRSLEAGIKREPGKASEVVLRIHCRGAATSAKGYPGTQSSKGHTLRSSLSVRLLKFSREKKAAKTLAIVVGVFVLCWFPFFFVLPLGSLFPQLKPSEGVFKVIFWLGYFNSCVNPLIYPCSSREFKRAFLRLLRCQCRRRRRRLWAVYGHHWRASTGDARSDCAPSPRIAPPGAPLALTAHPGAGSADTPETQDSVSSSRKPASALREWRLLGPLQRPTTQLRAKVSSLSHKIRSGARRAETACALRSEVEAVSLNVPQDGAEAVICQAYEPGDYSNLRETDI
In kind it is binding. To be noted: [3H]-prazosin radioligand; cloned receptor in LTK cell membranes; read-out: Radioligand Binding (Ki, nM) 1d (Rat).
Source text: (§3) The cDNA clones encoding the α-1 adrenoreceptors (α-1a, α-1b, and α-1d) were obtained from TULCO (Triangle Universities Licensing Consortium, Research Triangle Park, NC) and inserted into the eukaryotic expression vector SnaB30. In this vector, expression of the adrenoreceptor gene is under the transcriptional control of an SV40 early promoter. Positive drug selection is provided by a neomycin-resistance gene. Mouse fibroblast cells (LTK) were transfected with the α1 expression plasmids and grown in Dulbecco's modified Eagle's medium (DMEM) containing 10% fetal calf serum and 30 µM G418. Stable G418-resistant parental lines were generated, with successful expression of adrenoreceptor protein monitored using radioligand binding techniques. Stable single cell clones derived from the parental lines were screened in adrenoreceptor binding assays to identify clones having high adrenoreceptor density. Roller bottle cultures of the cloned lines were used to provide cell membranes for subsequent adrenoreceptor binding characterization studies. A cell line containing the SnaB30 vector expressing the human erythropoietin gene served as a negative control.
(§4) For adrenoreceptor binding assays, large scale membrane preparations were utilized in which 6 million cells were seeded into small (450 cm^2) Corning tissue culture roller bottles. 200 mL of DMEM containing 10% fetal calf serum and 300 µM G418 were added to each roller bottle. A 95% air / 5% CO2 gas mixture (sterile) was injected into each roller bottle prior to sealing. The bottles were then incubated at 37 °C on a roller rack for 5 days. Cells were re-fed with fresh medium after 3 days in culture.
as §1, §2

Assay [3] addresses T3, α-1b adrenoreceptor (Mesocricetus auratus, UniProt P18841).
T3 sequence (P18841 1-515): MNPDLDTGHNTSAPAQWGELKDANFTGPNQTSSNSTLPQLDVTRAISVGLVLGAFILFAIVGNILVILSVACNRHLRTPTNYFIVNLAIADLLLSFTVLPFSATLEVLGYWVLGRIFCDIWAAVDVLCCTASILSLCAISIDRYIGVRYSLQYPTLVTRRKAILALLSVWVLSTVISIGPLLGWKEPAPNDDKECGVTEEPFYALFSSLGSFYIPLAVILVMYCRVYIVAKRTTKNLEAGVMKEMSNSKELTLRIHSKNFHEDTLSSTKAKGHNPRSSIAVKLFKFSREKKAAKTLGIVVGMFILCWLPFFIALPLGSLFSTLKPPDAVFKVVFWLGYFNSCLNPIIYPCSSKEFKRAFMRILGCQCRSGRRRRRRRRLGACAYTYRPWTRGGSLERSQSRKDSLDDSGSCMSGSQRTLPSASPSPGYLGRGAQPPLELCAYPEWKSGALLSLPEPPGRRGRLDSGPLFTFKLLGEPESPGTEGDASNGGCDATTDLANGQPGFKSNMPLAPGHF
The class given is binding, hamster. The note with it: [3H]-prazosin radioligand; cloned receptor in LTK cell membranes; read-out: Radioligand Binding (Ki, nM) 1b (Hamster).
Source text: as §3, §4, §1, §2

Assay [4] has as its target T4, α-1a adrenoreceptor (Bos taurus, UniProt P18130).
T4 sequence (P18130 1-466): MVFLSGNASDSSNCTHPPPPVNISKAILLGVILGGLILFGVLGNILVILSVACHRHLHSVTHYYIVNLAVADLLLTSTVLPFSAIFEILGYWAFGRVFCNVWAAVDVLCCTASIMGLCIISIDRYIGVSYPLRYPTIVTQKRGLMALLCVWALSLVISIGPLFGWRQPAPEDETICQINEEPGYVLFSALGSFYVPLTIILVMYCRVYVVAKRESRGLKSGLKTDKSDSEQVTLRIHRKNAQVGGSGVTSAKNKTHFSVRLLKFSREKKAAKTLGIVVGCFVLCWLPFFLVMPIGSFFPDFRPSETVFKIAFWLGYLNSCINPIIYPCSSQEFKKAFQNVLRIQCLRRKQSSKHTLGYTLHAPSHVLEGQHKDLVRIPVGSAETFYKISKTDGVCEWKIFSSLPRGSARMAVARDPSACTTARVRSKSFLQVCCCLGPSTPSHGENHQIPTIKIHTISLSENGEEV
In kind it is binding, bovine. The note with it: [3H]-prazosin radioligand; cloned receptor in LTK cell membranes; read-out: Radioligand Binding (Ki, nM) 1a (Bovine).
Source text: as §3, §4, §1, §2

Counter-ions that a name gives are not always drawn.

Take `COc1ccc2sc3c(=O)n(CCCCN4C[C@@H]5COc6cccc(OC)c6[C@H]5C4)c(=O)[nH]c3c2n1` [Example 7, 3-[4-((3aR,9bS)-trans-9-Methoxy-1,2,3,3a,4,9b-hexahydro-[1]-benzopyrano[3,4-c]pyrrol-2-yl)butyl]-8-methoxy-pyrido[2',3':4,5]thieno[3,2-d]pyrimidine-2,4(1H,3H)-dione hydrochloride]: the Ki in assay [1] came to 0.53 nM; in assay [2], 0.438 nM; in assay [3], 1.61 nM; in assay [4] it was 0.215 nM.
For `COc1cccc2c1[C@H]1CN(CCCCn3c(=O)[nH]c4c(sc5c(OC)ccnc54)c3=O)C[C@@H]1CO2` [Example 8, 3-[4-((3aR,9bS)-trans-9-Methoxy-1,2,3,3a,4,9b-hexahydro-[1]-benzopyrano[3,4-c]pyrrol-2-yl)butyl]-6-methoxy-pyrido[2',3':4,5]thieno[3,2-d]pyrimidine-2,4(1H,3H)-dione dihydrochloride], in that order: 0.762 nM, 1.42 nM, 4.19 nM and 0.362 nM.
For `COc1cccc2c1[C@H]1CN(CCCCn3c(=O)[nH]c4c(sc5ncc(-c6ccccc6)nc54)c3=O)C[C@@H]1CO2` [Example 9, 3-[4-((3aR,9bS)-trans-9-Methoxy-1,2,3,3a,4,9b-hexahydro-[1]-benzopyrano[3,4-c]pyrrol-2-yl)butyl]-8-phenyl-pyrazino[2',3':4,5]thieno[3,2-d]pyrimidine-2,4(1H,3H)-dione hydrochloride], in that order: 2.27 nM, 1.55 nM, 17.8 nM and 0.325 nM.
For `COc1cccc2c1[C@H]1CN(CCCCn3c(=O)[nH]c4c(sc5ncc(Cl)nc54)c3=O)C[C@@H]1CO2` [Example 10, 3-[4-((3aR,9bS)-trans-9-Methoxy-1,2,3,3a,4,9b-hexahydro-[1]-benzopyrano[3,4-c]pyrrol-2-yl)butyl]-8-chloro-pyrazino[2',3':4,5]thieno[3,2-d]pyrimidine-2,4(1H,3H)-dione hydrochloride], in that order: 0.662 nM, 1.6 nM, 10.4 nM and 0.406 nM.
For `COCCn1c(=O)n(CCCCN2C[C@@H]3COc4cccc(OC)c4[C@H]3C2)c(=O)c2sc3nccnc3c21` [Example 11, 3-[4-((3aR,9bS)-trans-9-Methoxy-1,2,3,3a,4,9b-hexahydro-[1]-benzopyrano[3,4-c]pyrrol-2-yl)butyl]-1-(2-Methoxyethyl)-pyrazino[2',3':4,5]thieno[3,2-d]pyrimidine-2,4(1H,3H)-dione hydrochloride], the Ki amounted to 0.374 nM in assay [1], 1.46 nM in assay [2], 3.78 nM in assay [3] and 0.243 nM in assay [4].
For `COc1cccc2c1[C@H]1CN(CCCCn3c(=O)[nH]c4c(sc5nccnc54)c3=O)C[C@@H]1CO2` [Example 12, 3-[4-((3aR,9bS)-trans-9-Methoxy-1,2,3,3a.4,9b-hexahydro-[1]-benzopyrano[3,4-c]pyrrol-2-yl)butyl]-pyrazino[2',3':4,5]thieno[3,2-d]pyrimidine-2,4(1H,3H)-dione dihydrochloride], in that order: 0.52 nM, 2.17 nM, 5.25 nM and 0.375 nM.
For the compound `COc1cccc2c1[C@@H]1CN(CCCCn3c(=O)[nH]c4c(sc5nccnc54)c3=O)C[C@H]1CO2` [Example 14, 3-[4-((3aS,9bR)-trans-9-Methoxy-1,2,3,3a,4,9b-hexahydro-[1]-benzopyrano[3,4-c]pyrrol-2-yl)butyl]-pyrazino[2',3':4,5]thieno[3,2-d]pyrimidine-2,4(1H,3H)-dione dihydrochloride], the Ki in assay [1] was determined as 0.105 nM; in assay [2], 0.145 nM; in assay [3] it was 1.37 nM; in assay [4], 0.038 nM.

One may read the Ki as a measure of affinity in units of concentration, obtained from inhibition or displacement.

The record behind these values is patent EP0942911B1, “BENZOPYRANOPYRROLE AND BENZOPYRANOPYRIDINE ALPHA-1 ADRENERGIC COMPOUNDS” (Abbott Laboratories, priority 1996, dated 1998).
